Data taken from ChEMBL document CHEMBL1201862, “PubChem BioAssay data set” (2004).
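Values below derive from 48-hour exposures of cells grown in 96-well plates, with endpoints linearly interpolated between the two concentrations bracketing the appropriate inhibition level. At the GI50, growth is halved.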 The source made the active and inactive calls. No stated cut-off is given here; in the data, active = GI50 up to about 1.1 µM and inactive = higher. Where a SMILES comes first, the peptide text is derived from it. The star is where a group is joined. Boc = CC(C)(C)OC(=O)*; OBn = c1ccc(CO*)cc1

Key:
Assay in all cases: NCI tumour cell line growth inhibition, 48 h
UACC-257 = test system: UACC-257
OVCAR-5 = test system: OVCAR-5
CCRF-CEM = test system: CCRF-CEM
NCI-H460 = test system: NCI-H460
SK-MEL-28 = test system: SK-MEL-28
K562 = test system: K562
NCI-H522 = test system: NCI-H522
EKVX = test system: EKVX
MOLT-4 = test system: MOLT-4
OVCAR-8 = test system: OVCAR-8
SW-620 = test system: SW-620
SNB-19 = test system: SNB-19
NCI/ADR-RES = test system: NCI/ADR-RES
NCI-H23 = test system: NCI-H23
SF-295 = test system: SF-295
SK-MEL-2 = test system: SK-MEL-2
HCT-116 = test system: HCT-116
LOX IMVI = test system: LOX IMVI
M14 = test system: M14
U-251 = test system: U-251

SMILES | GI50 (UACC-257) | GI50 (OVCAR-5) | GI50 (CCRF-CEM) | GI50 (NCI-H460) | GI50 (SK-MEL-28) | GI50 (K562) | GI50 (NCI-H522) | GI50 (EKVX) | GI50 (MOLT-4) | GI50 (OVCAR-8) | GI50 (SW-620) | GI50 (SNB-19) | GI50 (NCI/ADR-RES) | GI50 (NCI-H23) | GI50 (SF-295) | GI50 (SK-MEL-2) | GI50 (HCT-116) | GI50 (LOX IMVI) | GI50 (M14) | GI50 (U-251)
COc1ccc(/C=C/C(=O)c2cccc(C(=O)/C=C/c3ccc(OC)c(OC)c3)n2)cc1OC | 39.6 µM (inactive) | 29.6 µM (inactive) | 1.05 µM (active) | 96.8 µM (inactive) | 15.8 µM (inactive) | 3.69 µM (inactive) | 4.75 µM (inactive) | > 95.9 µM (inactive) | 2.82 µM (inactive) | 3.27 µM (inactive) | 3.53 µM (inactive) | 27 µM (inactive) | 24.8 µM (inactive) | 29.2 µM (inactive) | > 73.8 µM (inactive) | > 100 µM (inactive) | 7.96 µM (inactive) | 2.02 µM (inactive) | 32.7 µM (inactive) | 6.52 µM (inactive)
Cc1cc(NS(=O)(=O)c2ccc(NC(=O)c3ccc4nc5ccccc5c(Nc5ccc(S(=O)(=O)Nc6cc(C)on6)cc5)c4c3)cc2)no1 | > 50 µM (inactive) | > 50 µM (inactive) | > 50 µM (inactive) | > 50 µM (inactive) | > 50 µM (inactive) | > 50 µM (inactive) | > 50 µM (inactive) | > 50 µM (inactive) | > 50 µM (inactive) | > 50 µM (inactive) | > 50 µM (inactive) | > 50 µM (inactive) | > 50 µM (inactive) | > 50 µM (inactive) | > 50 µM (inactive) | > 50 µM (inactive) | > 50 µM (inactive) | > 50 µM (inactive) | > 50 µM (inactive) | > 50 µM (inactive)
CC1(C)OC(=O)N(c2ccccc2)C12C=Cc1cc([N+](=O)[O-])cc([N+](=O)[O-])c1O2 (stereo not given) | 50.2 µM (inactive) | > 100 µM (inactive) | > 100 µM (inactive) | > 100 µM (inactive) | > 100 µM (inactive) | 89.3 µM (inactive) | 25.2 µM (inactive) | 91.8 µM (inactive) | > 100 µM (inactive) | > 100 µM (inactive) | > 100 µM (inactive) | > 100 µM (inactive) | > 100 µM (inactive) | > 100 µM (inactive) | > 100 µM (inactive) | > 100 µM (inactive) | > 100 µM (inactive) | > 100 µM (inactive) | 61.5 µM (inactive) | > 100 µM (inactive)
O=C1CSC2(CC(/C=C/c3cccc(Br)c3)=NN2c2cccc(S(=O)(=O)O)c2)N1c1nc2ccccc2s1 (stereo not given) | > 100 µM (inactive) | > 100 µM (inactive) | 20 µM (inactive) | > 100 µM (inactive) | > 100 µM (inactive) | 42.8 µM (inactive) | 58.5 µM (inactive) | > 100 µM (inactive) | > 100 µM (inactive) | > 79.8 µM (inactive) | > 100 µM (inactive) | > 100 µM (inactive) | > 100 µM (inactive) | > 100 µM (inactive) | > 100 µM (inactive) | > 100 µM (inactive) | > 100 µM (inactive) | > 82.6 µM (inactive) | > 100 µM (inactive) | > 100 µM (inactive)
CC(C)/C(Cl)=N/OC(=O)Nc1ccc(F)c(Cl)c1 | 13.5 µM (inactive) | 19.2 µM (inactive) | 1.31 µM (inactive) | 18.2 µM (inactive) | 2.23 µM (inactive) | 1.09 µM (active) | 1.65 µM (inactive) | 2.07 µM (inactive) | 1.94 µM (inactive) | 17.4 µM (inactive) | 1.92 µM (inactive) | 22.6 µM (inactive) | 14.5 µM (inactive) | 14.2 µM (inactive) | 16.1 µM (inactive) | 18.8 µM (inactive) | 2.54 µM (inactive) | 1.76 µM (inactive) | 3.23 µM (inactive) | 21.1 µM (inactive)
Nc1ccc(Nc2c3ccccc3nc3ccccc23)cc1 | > 10 µM (inactive) | 5.52 µM (inactive) | 2.09 µM (inactive) | 0.565 µM (active) | > 10 µM (inactive) | 4.86 µM (inactive) | 4.79 µM (inactive) | 8.51 µM (inactive) | 0.568 µM (active) | 3.31 µM (inactive) | 2.26 µM (inactive) | 4.99 µM (inactive) | 4.9 µM (inactive) | 3.25 µM (inactive) | 2.62 µM (inactive) | 7.87 µM (inactive) | 3.15 µM (inactive) | 1.06 µM (active) | 6.95 µM (inactive) | 4.4 µM (inactive)
NS(=O)(=O)c1cc2c(cc1Cl)NCNS2(=O)=O [HYDROCHLOROTHIAZIDE] | > 100 µM (inactive) | > 100 µM (inactive) | > 100 µM (inactive) | > 100 µM (inactive) | > 100 µM (inactive) | > 100 µM (inactive) | > 100 µM (inactive) | > 100 µM (inactive) | > 100 µM (inactive) | > 100 µM (inactive) | > 100 µM (inactive) | > 100 µM (inactive) | > 100 µM (inactive) | > 100 µM (inactive) | > 100 µM (inactive) | > 100 µM (inactive) | > 100 µM (inactive) | > 100 µM (inactive) | > 100 µM (inactive) | > 100 µM (inactive)
C=C(C)[C@H]1CC(=O)[C@@]2(C)C[C@H]3O[C@]3(C)CC/C=C(\C)CC[C@H]12 | 19.4 µM (inactive) | 86.9 µM (inactive) | 32.7 µM (inactive) | 45.7 µM (inactive) | 50.4 µM (inactive) | 18 µM (inactive) | 37.1 µM (inactive) | 40.5 µM (inactive) | 24 µM (inactive) | 98.4 µM (inactive) | 42.3 µM (inactive) | 70 µM (inactive) | 35.4 µM (inactive) | 34.4 µM (inactive) | > 100 µM (inactive) | 45.1 µM (inactive) | 33.9 µM (inactive) | 57.5 µM (inactive) | > 10 µM (inactive) | 51.9 µM (inactive)
CC(C)(C)OC(=O)NC(Cc1ccccc1)C(=O)NC(Cc1ccccc1)C(=O)NCC(=O)OCc1ccccc1 (stereo not drawn) (Boc-Phe-Phe-Gly-OBn; configuration not given here) | > 100 µM (inactive) | 37.5 µM (inactive) | 16.4 µM (inactive) | 23 µM (inactive) | 23.3 µM (inactive) | 12.5 µM (inactive) | 6 µM (inactive) | 45 µM (inactive) | 22.2 µM (inactive) | 30.1 µM (inactive) | 12.8 µM (inactive) | 35 µM (inactive) | > 100 µM (inactive) | 22.8 µM (inactive) | > 10 µM (inactive) | 33.6 µM (inactive) | 18.3 µM (inactive) | 7.93 µM (inactive) | 20.8 µM (inactive) | 18.7 µM (inactive)
COc1cc2[nH]c(=O)[nH]c2c2c(C)c[nH]c12 | > 100 µM (inactive) | > 100 µM (inactive) | > 100 µM (inactive) | > 100 µM (inactive) | > 100 µM (inactive) | > 100 µM (inactive) | > 100 µM (inactive) | > 100 µM (inactive) | > 100 µM (inactive) | > 100 µM (inactive) | > 100 µM (inactive) | > 100 µM (inactive) | > 100 µM (inactive) | > 100 µM (inactive) | > 100 µM (inactive) | > 100 µM (inactive) | > 100 µM (inactive) | > 100 µM (inactive) | > 100 µM (inactive) | > 100 µM (inactive)
